Experiment [1] concerns primary human keratinocytes. As to the kind of experiment: ELISA assay for cortisol in medium of cultured keratinocytes. The experiment is classed as cell-based. Particulars: for induction of cortisol levels / cortisol production / effect on cortisol production (in words): keratinocytes; for induction of cortisol levels / cortisol production: after 24 hours, ACTH 0.1 μM, progesterone 1 μM; for effect on cortisol production (in words): 24 hours, metyrapone 200 μM. As for the experimental part: Normal human epidermal keratinocytes were initiated using 3T3 feeder layers as previously described (Randolph and Simon (1993) J. Biol. Chem. 268(13):9198-9205) and frozen in liquid nitrogen until use. Once thawed, the keratinocytes were grown without feeder cells in defined serum-free keratinocyte medium supplemented with epidermal growth factor and bovine pituitary extract (keratinocyte-SFM, GIBCO, Carlsbad, Calif.). Cells were expanded through two 1:4 passages before they were grown to 80% confluency. Cells were washed several times with 1×PBS before they were incubated with basal keratinocyte medium (GIBCO) custom made without hydrocortisone and thyroid hormone.
(§1) Cells were cultured to 80% of confluency as described above in Example 1(C). 200 μl of the medium was collected at 0, 6, 12, 24, and 48 hours after the switch to basal medium, and cortisol production was measured using ELISA kit (R & D Systems, Minneapolis, Minn.) following commercial protocol.
(§2) To further confirm that keratinocytes produce glucocorticoids de novo, medium was collected from cultured cells grown in the minimal medium in the absence of any alternative GC source as described in Example 1(C). Cortisol production was measured after 0, 6, 12, 24, and 48 hours using the ELISA assay described in Example 1(E). To confirm the production in tissue, the production of cortisol released from skin in explant cultures was measured. As shown in FIG. 3(B), 11.1 ng/ml of cortisol was released by the skin.
Cortisol production was measured after 24 hours using the ELISA assay described in Example 1(E). […] The addition of 1 μM of progesterone as a substrate for glucocorticoid synthesis lead to a 2.5 fold induction in cortisol production in both cells and skin (FIG. 7B). The addition of 200 μM metyrapone (Sigma) decreased endogenous levels of cortisol production (FIG. 7B).
(§3) To determine if injury-related molecules affect cortisol synthesis, IL-1 or IGF-1 was added to keratinocytes cultured as described in Example 1(C) or skin explants. IL-1 is a primary injury-response pro-inflammatory signal whereas IGF-1 is known to modulate glucocorticoid metabolism (Rappolee et al. (1988) Science 241:708-12). ACTH was used as a positive control. Cortisol levels were measured 24 hours post-treatment using the ELISA assay described in Example 1(E). […] In contract, IGF-1 inhibited cortisol production in both treated cells and tissue (FIG. 8(A)).

For experiment [2], the system named is skin explant cultures. As to the kind of experiment: ELISA assay for cortisol released from skin explant cultures. Particulars: for induction of cortisol levels / cortisol production: after 24 hours, ACTH 0.1 μM, progesterone 1 μM; for effect on cortisol production (in words): 24 hours, metyrapone 200 μM. The experiment is classed as cell-based, human. As for the experimental part:
as §1, §2
A further experiment was performed where prior to measurement both the keratinocytes and the skin explant cultures were stimulated with 0.1 μM of ACTH. Cortisol production was measured after 24 hours using the ELISA assay described in Example 1(E). […] The addition of 1 μM of progesterone as a substrate for glucocorticoid synthesis lead to a 2.5 fold induction in cortisol production in both cells and skin (FIG. 7B). The addition of 200 μM metyrapone (Sigma) decreased endogenous levels of cortisol production (FIG. 7B).
as §3
(In general: In an ELISA, binding on a coated surface is turned into a signal by an enzyme label.)

The test system of experiment [3] is β-catenin. As to the kind of experiment: Immunohistochemistry of phosphorylated β-catenin in chronic wound biopsies (diabetic foot ulcers). Details: species or system human. The following applies: topically applied to chronic wound biopsies. As for the experimental part: Chronic wound tissue was obtained from discarded tissue of biopsies of consenting patients having surgical debridement using approved Columbia University protocol.
Slides were counterstained with hematoxylin. […] Sections were analyzed using a Carl Zeiss microscope. Digital images were taken with Adobe TWAIN—32 program.
It has been previously reported that β-catenin and c-myc participate in inhibition of wound healing and contribute to the impairment of healing in chronic wounds. […] To test if endogenous glucocorticoid participates in β-catenin activation in patients with chronic wounds, metyrapone was topically applied to chronic wound biopsies from patients with diabetic foot ulcers (as described in Example 1(A)). The effects were evaluated by measuring phosphorylation and intracellular translocation of β-catenin by immunohistochemistry as described in Example 1(B), except using an antibody targeting phosphorylated (activated) form of β-catenin (Cell Signaling Technology, Danvers, Mass.). […] As also shown in FIG. 12, this effect can be reversed by the addition of an exogenous glucocorticoid.

Experiment [4] deals with c-myc. As to the kind of experiment: Northern Blot and Western Blot of c-myc in keratinocytes and tissue. The experiment is classed as cell-based, human. As for the experimental part:
Keratinocytes were grown to 80% confluency, switched to the basal media for 24 hours, and incubated with 1 mM dexamethasone (Sigma) for 24 and 48 hours. Cells were harvested by trypsinization and cytoplasmic and nuclear fractions were obtained using Nuclear Extract Kit (Active Motif, Carlsbad, Calif.) following commercial protocol. 15 μg of each fraction was separated on a 10% SDS-PAGE gel. The proteins were then transferred to a nitrocellulose membrane (Protran®, Bioscience, Dassel, Germany) using the semi-dry transfer system (BioRad, Hercules, Calif.). Ponceau S was used to check the efficiency of the transfer. […] The membrane was washed 3 times for 5 minutes in TTBS and then incubated at 4° C. overnight with GR antibody (1:500) (Affinity Bioreagents) followed with horseradish […] (HRP) conjugated to anti-rabbit secondary antibody (1:1000) (Santa Cruz Biotech, Santa Cruz, Calif.). Immune complexes were visualized using Super Signal West Pico Chemiluminescent substrate (Pierce, Rockford, Ill.). Immunoblot was exposed on x-ray film (HyBlot CL, Denville, N.J.) according to manufacturer's instruction.
It was also found by Northern Blot analysis using acute wound tissue that c-myc was induced at 96 hours post-wounding (FIG. 11(B)).
Using Western Blot analysis, it was shown that protein levels of c-myc were induced by exogenous glucocorticoid and blocked by metyrapone (FIG. 11(C)).

For experiment [5], the system named is glucocorticoid receptor. As to the kind of experiment: Immunohistochemistry of phosphorylated (hormone-activated) GR in acute wound sections. Details: species or system human. Particulars: treated acute wound samples.
Text: Human skin specimens were obtained from discarded tissue in reduction mammoplasty following approved Hospital for Special Surgery protocol (#25121). […] The adipose tissue was removed, and circular templates of skin were generated using a 6 mm biopsy punch. A 3 mm biopsy punch was used to create an acute wound. […] Acute wounds were fixed in 4% paraformaldehyde (Sigma) at room temperature overnight, dehydrated with ethanol, cleared in chloroform, and embedded in paraffin.
Six μm tissue sections were serially cut on a microtome (HM 315, Carl Zeiss, New York, N.Y.) and mounted on slides. Sections were dewaxed in xylene, re-hydrated and washed with 1× phosphate buffered saline (PBS). For antigen retrieval, paraffin sections were heated in a 95° C. water bath in Target Retrieval Solution (DAKO Corporation, Carpinteria, Calif.). Histological slides were treated with 3% H2O2/30% MeOH for 30 minutes, rinsed with water, and blocked with normal rabbit serum for 30 minutes (Vectastatin Kit Elite ABC, Vectorlabs, Burlingame, Calif.). […] Sections were analyzed using a Carl Zeiss microscope. […]
The subject of experiment [6] is acute wounds in human skin specimens. As to the kind of experiment: Epithelialization in acute wounding model of human skin (histology). Particulars: topical; air-liquid interface for 6 days; metyrapone 200 μM. From the text: Human skin specimens were obtained from discarded tissue in reduction mammoplasty following approved Hospital for Special Surgery protocol (#25121). Preparation of tissue with acute wounds was done as previously described (Tomic-Canic et al. (2007) Wound Repair Regen. 15(1):71-9); Stojadinovic et al. (2005) Am. J. Pathol. 167(1):59-69). The adipose tissue was removed, and circular templates of skin were generated using a 6 mm biopsy punch. A 3 mm biopsy punch was used to create an acute wound. The skin specimens were maintained at the air-liquid interface with DMEM (BioWhittaker, Walkersville, Md.) with antibiotics-antimycotics, and fetal bovine serum (FBS) (Gemini Bio-Products, Woodland, Calif.) for 0, 4, 48, and 96 hours in the presence or absence of 1 μM dexamethasone (Sigma, St. Louis, Mo.). Acute wounds were fixed in 4% paraformaldehyde (Sigma) at room temperature overnight, dehydrated with ethanol, cleared in chloroform, and embedded in paraffin.
The effect of glucocorticoids on epithelialization was tested using the acute wounding model described in Example 1(A). The wounded skin was maintained at the air-liquid interface for 6 days. Wounds were maintained in the presence or absence of clobetasol propionate (routinely used by dermatologists in the treatment of inflammatory skin disorders). Healing rates was determined by histology. […]

Experiment [7] deals with CYP11B1. As to the kind of experiment: RT-PCR of CYP11B1 expression in treated keratinocytes. The experiment is classed as cell-based, human. As for the experimental part: RNA isolation and purification was performed using Triazol (Invitrogen, Carlsbad, Calif.) extraction and subsequent Qiagen RNeasy Kit column purification (Qiagen, Alameda, Calif.). Reverse transcription and amplification were performed using primers CYP11B1 fw GCTAGACATAGGGGCTCC (SEQ ID no. 1), CYP11B1-rev AGGTGTTTCAGCACATGG (SEQ ID no. 2)and Access RT-PCR Kit (Promega, Madison, Wis.) as follows: (a) reverse transcription—1 cycle at 48° C. for 45 minutes; (b) AMV RT inactivation and RNA/cDNA primer denaturation—1 cycle at 94° C. for 2 minutes; (c) second strand cDNA synthesis and PCR amplification—35 cycles: denaturation for 30 seconds, annealing at 51° C. for 1 minute and extension at 68° C. for 2 minutes; and (d) final extension—1 cycle at 68° C. for 7 minutes. Samples were separated by electrophoresis on 2% agarose gels containing 0.5 μg/ml of ethidium bromide and visualized under UV light.
To elucidate the possible mechanism of regulation involved in these observations, the expression of CYP11B1 was measured using RT-PCR as described in Example 1(G). The expression levels of CYP11B1 corresponded to the cortisol production. IL-1 induced the expression of CYP11B1 similar to ACTH, whereas IGF-1 inhibited its expression (FIG. 8(B)).

Take `CC(=O)[C@H]1CC[C@H]2[C@@H]3CCC4=CC(=O)CC[C@]4(C)[C@H]3CC[C@]12C` [progesterone]: the “induction of cortisol levels / cortisol production” value in experiment [1] and in experiment [2] (skin explants) was 2.5 fold in each case.

Turning to `CC(C)(C(=O)c1cccnc1)c1cccnc1` [metyrapone], the “effect on cortisol production (in words)” value in experiment [1] and in experiment [2] (skin explants) was “decreased” in each case. In experiment [3], the “β-catenin phosphorylation and nuclearization” value is given as “abolished”. Further, the “protein levels of c-myc (Western Blot)” value in experiment [4] was “blocked”. In experiment [5], the “hormone-activated GR in the nucleus (anti-phospho-Ser211 staining)” value is given as “absence of GR in the nucleus”. Further, in experiment [6], the “epithelialization / wound closure” value is “complete wound closure”.

Consider “IGF-1: known to modulate glucocorticoid metabolism”, for which, in experiment [7], the “expression of CYP11B1 (RT-PCR)” value is recorded as “inhibited”. Moreover, the “effect on cortisol production (in words)” value in experiment [1] and in experiment [2] (skin explants) was “inhibited” in each case.

On to `CCC(=O)O[C@]1(C(=O)CCl)[C@@H](C)C[C@H]2[C@@H]3CCC4=CC(=O)C=C[C@]4(C)[C@@]3(F)[C@@H](O)C[C@@]21C` [clobetasol propionate], for which the “epithelialization / wound closure” value in experiment [6] is “completely inhibited epithelialization”.

Take “adrenocorticotropic hormone (SYSMEHFRWGKPVGKKRRPVKVYPNGAEDESAEAFPLEF; Corticotropin; UniProt P01189 138-176, looked up) [ACTH, stimulates synthesis of glucocorticoid]”: the “expression of CYP11B1 (RT-PCR)” value in experiment [7] is “induced”. Besides, the “induction of cortisol levels” value in experiment [1] (keratinocytes in culture, 0.1mM of ACTH) was 2.7 fold; in experiment [2] (skin explants, 0.1 μM of ACTH) it was 2.01 fold. The “induction of cortisol levels / cortisol production” value in experiment [1] came to 2.7 fold; in experiment [2] (skin explants), 2.0 fold.

`[Ca+2].[Cl-].[Cl-]` [CaCl2]: the “effect on cortisol production in the skin” value in experiment [2] (increased CaCl2 levels) is reported as “decrease”.

The record behind these values is US8802660B2, “De novo synthesis of glucocorticoids in the epidermis and its uses and applications” (New York University, priority 2007, dated 2014).
